Measured values reported in the supplement of paper PMC10307832.

Experiments:
Test in all cases: relative viability (nuclei count vs DMSO), 5 days (fraction); higher = more cells survive
BX 795 + Phenformin = compound: O=C(NCCCNc1nc(Nc2cccc(NC(=O)N3CCCC3)c2)ncc1I)c1cccs1 [BX 795] + N=C(N)NC(=N)NCCc1ccccc1 [Phenformin] (partner 250 µM)
Outline: (§1)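 Each reported value is a median over duplicate plates. It expresses relative viability: treated-well nuclei count divided by vehicle-well nuclei count. Lung cancer cell lines in 1536-well plates were dosed by pin tool a day after seeding, alone with one drug or with a fixed anchor-drug dose plus five library-drug doses (not always all listed) in √10 steps, and nuclei were counted after 5 days.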

BX 795 + Pemetrexed = compound: O=C(NCCCNc1nc(Nc2cccc(NC(=O)N3CCCC3)c2)ncc1I)c1cccs1 [BX 795] + Nc1nc2[nH]cc(CCc3ccc(C(=O)N[C@@H](CCC(=O)O)C(=O)O)cc3)c2c(=O)[nH]1 [Pemetrexed] (partner 0.2 µM)
Outline: as §1

BX 795 + AZD7762 = compound: O=C(NCCCNc1nc(Nc2cccc(NC(=O)N3CCCC3)c2)ncc1I)c1cccs1 [BX 795] + NC(=O)Nc1cc(-c2cccc(F)c2)sc1C(=O)N[C@H]1CCCNC1 [AZD7762] (partner 0.2 µM)
Outline: as §1

BX 795 + Pictilisib = compound: O=C(NCCCNc1nc(Nc2cccc(NC(=O)N3CCCC3)c2)ncc1I)c1cccs1 [BX 795] + CS(=O)(=O)N1CCN(Cc2cc3nc(-c4cccc5[nH]ncc45)nc(N4CCOCC4)c3s2)CC1 [Pictilisib] (partner 1 µM)
Outline: as §1

BX 795 + Trametinib = compound: O=C(NCCCNc1nc(Nc2cccc(NC(=O)N3CCCC3)c2)ncc1I)c1cccs1 [BX 795] + CC(=O)Nc1cccc(-n2c(=O)n(C3CC3)c(=O)c3c(Nc4ccc(I)cc4F)n(C)c(=O)c(C)c32)c1 [Trametinib] (partner 0.02 µM)
Outline: as §1

| Cell Line | relative viability (BX 795 + Phenformin; first compound 0.04 µM) | relative viability (BX 795 + Phenformin; first compound 0.1265 µM) | relative viability (BX 795 + Phenformin; first compound 0.4 µM) | relative viability (BX 795 + Phenformin; first compound 1.265 µM) | relative viability (BX 795 + Pemetrexed; first compound 0.04 µM) | relative viability (BX 795 + Pemetrexed; first compound 0.1265 µM) | relative viability (BX 795 + Pemetrexed; first compound 0.4 µM) | relative viability (BX 795 + Pemetrexed; first compound 1.265 µM) | relative viability (BX 795 + AZD7762; first compound 0.04 µM) | relative viability (BX 795 + AZD7762; first compound 0.1265 µM) | relative viability (BX 795 + AZD7762; first compound 0.4 µM) | relative viability (BX 795 + AZD7762; first compound 1.265 µM) | relative viability (BX 795 + Pictilisib; first compound 0.04 µM) | relative viability (BX 795 + Pictilisib; first compound 0.1265 µM) | relative viability (BX 795 + Pictilisib; first compound 0.4 µM) | relative viability (BX 795 + Pictilisib; first compound 1.265 µM) | relative viability (BX 795 + Trametinib; first compound 0.04 µM) | relative viability (BX 795 + Trametinib; first compound 0.1265 µM) | relative viability (BX 795 + Trametinib; first compound 0.4 µM) | relative viability (BX 795 + Trametinib; first compound 1.265 µM) |
| --- | --- | --- | --- | --- | --- | --- | --- | --- | --- | --- | --- | --- | --- | --- | --- | --- | --- | --- | --- | --- |
| 201T | 0.47 | 0.421 | 0.464 | 0.421 | 0.302 | 0.305 | 0.298 | 0.304 | 0.6 | 0.603 | 0.597 | 0.628 | 0.689 | 0.679 | 0.721 | 0.68 | 0.763 | 0.749 | 0.76 | 0.766 |
| A549 | 0.23 | 0.15 | 0.271 | 0.112 |  |  |  |  |  |  |  |  | 0.51 | 0.47 | 0.449 | 0.134 |  |  |  |  |
| A-427 | 0.284 | 0.236 | 0.277 | 0.177 | 1.02 | 0.925 | 1.08 | 0.849 | 0.774 | 0.843 | 0.694 | 0.647 | 0.723 | 0.805 | 0.651 | 0.585 | 0.757 | 0.733 | 0.72 | 0.625 |
| ABC-1 | 0.263 | 0.265 | 0.262 | 0.195 |  |  |  |  | 0.83 | 0.924 | 0.745 | 0.838 | 0.507 | 0.555 | 0.634 | 0.661 |  |  |  |  |
| BEN | 0.235 | 0.278 | 0.245 | 0.21 | 0.803 | 0.766 | 0.771 | 0.771 | 0.659 | 0.653 | 0.587 | 0.647 | 0.542 | 0.587 | 0.533 | 0.715 | 1.12 | 1.12 | 0.933 | 1.13 |
| CAL-12T | 0.599 | 0.591 | 0.447 | 0.212 | 1.1 | 1.28 | 0.809 | 0.494 | 0.555 | 0.617 | 0.609 | 0.584 | 0.543 | 0.452 | 0.368 | 0.32 | 0.273 | 0.298 | 0.322 | 0.24 |
| COR-L23 | 0.391 | 0.411 | 0.431 | 0.234 | 0.204 | 0.188 | 0.176 | 0.171 |  |  |  |  | 0.909 | 0.899 | 0.75 | 0.538 | 0.622 | 0.628 | 0.509 | 0.344 |
| COR-L 105 | 0.42 | 0.531 | 0.407 | 0.351 | 1.12 | 1.02 | 0.816 | 0.882 |  |  |  |  | 0.376 | 0.381 | 0.359 | 0.328 | 0.47 | 0.403 | 0.389 | 0.421 |
| ChaGo-K-1 | 0.449 | 0.471 | 0.494 | 0.472 | 0.243 | 0.258 | 0.254 | 0.258 | 0.797 | 0.864 | 0.858 | 0.815 | 0.615 | 0.52 | 0.735 | 0.776 | 0.924 | 0.907 | 0.885 | 0.75 |
| EKVX | 0.225 | 0.247 | 0.21 | 0.217 | 0.309 | 0.379 | 0.228 | 0.386 | 0.67 | 0.805 | 0.671 | 0.645 | 0.401 | 0.455 | 0.421 | 0.466 | 0.358 | 0.298 | 0.382 | 0.351 |
| EMC-BAC-2 | 0.473 | 0.489 | 0.469 | 0.301 | 0.383 | 0.446 | 0.428 | 0.454 | 1.06 | 1.09 | 0.945 | 0.727 | 0.533 | 0.488 | 0.479 | 0.415 | 0.943 | 0.921 | 0.868 | 0.749 |
| EPLC-272H | 0.364 | 0.216 | 0.284 | 0.272 | 0.272 | 0.294 | 0.123 | 0.21 | 0.215 | 0.337 | 0.234 | 0.259 | 0.364 |  | 0.308 | 0.304 | 0.293 | 0.32 | 0.275 | 0.325 |
| H3255 | 0.371 | 0.354 | 0.406 | 0.363 | 0.615 | 0.531 | 0.584 | 0.509 | 0.933 | 0.869 | 0.846 | 0.859 | 0.533 | 0.475 | 0.498 | 0.428 | 0.616 | 0.666 | 0.655 | 0.565 |
| HARA | 0.446 | 0.424 | 0.506 | 0.447 | 0.21 | 0.227 | 0.195 | 0.227 | 0.149 | 0.301 | 0.286 | 0.387 | 0.403 | 0.412 | 0.496 | 0.474 | 0.75 | 0.625 | 1.16 | 0.533 |
| HCC-15 | 0.423 | 0.485 | 0.482 | 0.283 | 0.199 | 0.202 | 0.215 | 0.194 | 1.21 | 1.26 | 1.27 | 1.18 | 0.71 | 0.779 | 0.968 | 0.744 | 0.389 | 0.381 | 0.505 | 0.355 |
| HCC-44 | 0.157 | 0.162 | 0.222 | 0.153 | 0.537 | 0.614 | 0.449 | 0.666 | 0.976 | 1 | 1.09 | 1.09 | 0.55 | 0.672 | 0.681 | 0.594 | 1.14 | 1.08 | 1.23 | 1.12 |
| HCC-78 | 0.853 | 0.656 | 0.817 | 0.708 | 0.913 | 0.888 | 0.873 | 0.883 | 0.583 | 0.631 | 0.606 | 0.594 | 0.236 | 0.206 | 0.154 | 0.218 | 0.823 | 0.756 | 0.797 | 0.737 |
